Experiment [1] has as its target T1, CaBdf1 BD1 Y248F (Candida albicans, UniProt Q5A4W8, Y248F).
T1 construct: made in house; host or cells: E. coli BL21(DE3), inferred from the wild-type GST construct
The experiment is described as follows: Histone peptide microarray binding, YF mutant. Also on record: species or system C. albicans. Conditions: CaBdf1 BD1 YF mutant. The protocol: (§1) In short, arrays were blocked and incubated with 1 μM of purified CaBdf1 BD1 or BD2. Arrays were incubated with recombinant BDs for 2 h at 4 °C in binding buffer (Tris-HCl 50 mM pH 7.4, NP-40 0.1%, NaCl 150 mM, glycerol 10%). […] Assays were performed in duplicate. Images were acquired on a Bio-Rad ChemiDoc XRS Imaging machine and data were quantified using the array analyser software provided by Active Motif.

Experiment [2] concerns the target T2, CaBdf1 BD2 Y425F (Candida albicans, UniProt Q5A4W8, Y425F).
T2 construct: made in house; host or cells: E. coli BL21(DE3), inferred from the wild-type GST construct
The experiment is described as follows: Histone peptide microarray binding, YF mutant. Also noted: species or system C. albicans. The settings on record: CaBdf1 BD2 YF mutant. The protocol:
as §1

Experiment [3] has as its system C. albicans. The experiment in a line: C. albicans growth assay in liquid media. Format: cell-based. Here is the method:
Growth on liquid media. C. albicans strains were grown at 30 °C in SC medium to an OD600 of 0.5–0.8. For the evaluation of growth defects related to Bdf1 mutations, log-phase growing cells were counted using a Neubauer chamber and diluted in liquid media to a final concentration of 5,400 cells per ml per well in a sterile 96-well plate. Dox (50 μg ml^−1) or methionine (5 mM)/cysteine (0.25 mM) were added to the media if required. Plates were incubated at 30 °C and OD600 was measured using a Multiskan FC Microplate Photometer (Thermo Fisher). For the evaluation of chemical compounds, strains were grown in SC medium supplemented with 50 μg ml^−1 Dox or 5 mM methionine/0.25 mM cysteine 24 h before counting and then seeded in 96-well plates at the same concentration as mentioned above, with or without chemical compounds. Statistical tests were performed using two-sided Welch t-tests.

Experiment [4] addresses T3, CaBdf1 BD1 (Candida albicans, UniProt Q5A4W8).
T3 construct: made in house; host or cells: E. coli BL21(DE3)
The experiment in a line: Isothermal titration calorimetry (ITC). The format is binding. The protocol: (§2) Proteins used for crystallization and for ITC. […] Cells were resuspended in buffer A (50 mM Tris-HCl pH 7.5, 300 mM NaCl, 10% glycerol, 25 mM imidazole, 5 mM β-mercaptoethanol and protease inhibitors) and lysed by sonication. The cleared lysate was incubated with Ni-NTA resin (Qiagen) and washed with buffer A containing 0.5 M NaCl. Proteins were eluted with 250 mM imidazole, dialysed overnight in the presence of His-tagged TEV protease against buffer A containing no imidazole and incubated with Ni-NTA resin to remove His-tagged species. Proteins were further purified on a Superdex 75 10/300 (GE Healthcare) column in 50 mM Hepes pH 7.5, 150 mM NaCl, 0.5 mM dithiothreitol (DTT). Proteins were concentrated to >20 mg ml^−1 on a Centricon device (Millipore) and used for ITC, TSA and crystallization experiments. […] Expression and purification were performed as above, except that buffer A was replaced by buffer B (50 mM Hepes pH 7.5, 500 mM NaCl, 5% glycerol, 5 mM imidazole and protease inhibitors) and gel filtration was performed in 10 mM Hepes pH 7.5, 500 mM NaCl and 5% glycerol.
(§3) Calorimetric experiments were performed on a NanoITC calorimeter (TA Instruments) at 25 °C while stirring at 250 r.p.m. All proteins were buffer exchanged by gel filtration into 50 mM Hepes pH 7.5, 150 mM NaCl, 0.5 mM DTT, except for SMARCA2 and SMARCA4A BDs, which were exchanged into 10 mM Hepes pH 7.5, 500 mM NaCl and 5% glycerol. […] Titrations consisted of an initial injection of 1.5 μl followed by 19 identical injections of 2.5 μl made at time intervals of 5 min. ITC data were corrected for the heat of dilution of injectant into buffer and analysed with software provided by the manufacturer using a single binding site model. The first data point was excluded from the analysis. Thermodynamic parameters determined from the ITC data are summarized in Supplementary Table 1.
Background: In ITC the heat of successive injections is recorded.

Experiment [5] deals with T4, human Brd4 BD1 (Homo sapiens, UniProt O60885). The experiment is described as follows: HTRF assay, inhibition of BD binding to H4ac4 peptide. Also noted: human Brd4 BD1 (residues 22–204); His tag with TEV site (N, cleaved yes); made in house; host or cells: E. coli BL21(DE3). Background: In TR-FRET formats the signal depends on donor and acceptor labels being close together.

Experiment [6] has as its target T5, CaBdf1 BD2 (Candida albicans, UniProt Q5A4W8). Format: binding. Also noted: made in house; host or cells: E. coli BL21(DE3). The settings on record: CaBdf1 BD2 WT. The protocol: (§4) In short, arrays were blocked and incubated with 1 μM of purified CaBdf1 BD1 or BD2. Arrays were incubated with recombinant BDs for 2 h at 4 °C in binding buffer (Tris-HCl 50 mM pH 7.4, NP-40 0.1%, NaCl 150 mM, glycerol 10%). […] Assays were performed in duplicate.
Target sequence in this assay (Q5A4W8 361-501): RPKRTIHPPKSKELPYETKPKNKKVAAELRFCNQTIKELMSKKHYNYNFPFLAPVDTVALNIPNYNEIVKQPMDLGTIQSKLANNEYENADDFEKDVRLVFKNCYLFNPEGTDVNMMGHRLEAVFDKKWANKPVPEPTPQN

Experiment [7] addresses T3, CaBdf1 BD1. The experiment is described as follows: HTRF assay, inhibition of BD binding to H4ac4 peptide. Also noted: species or system C. albicans. The settings on record: for IC50: H4ac4 peptide.
The target in experiment [8] is T3, CaBdf1 BD1. Format: binding. Conditions: CaBdf1 BD1 WT. The protocol:
as §4

Experiment [9] concerns the target T4, human Brd4 BD1. The experiment in a line: Isothermal titration calorimetry (ITC). Format: binding. Also noted: human Brd4 BD1 (residues 22–204); His tag with TEV site (N, cleaved yes); made in house; host or cells: E. coli BL21(DE3). The protocol:
as §2, §3

In experiment [10] the target is T5, CaBdf1 BD2. The experiment is described as follows: Isothermal titration calorimetry (ITC). The format is binding. Also noted: His tag with TEV site (N, cleaved yes); made in house; host or cells: E. coli BL21(DE3). Conditions: ITC. Here is the method:
as §2, §3
Target sequence in this assay (Q5A4W8 386-491): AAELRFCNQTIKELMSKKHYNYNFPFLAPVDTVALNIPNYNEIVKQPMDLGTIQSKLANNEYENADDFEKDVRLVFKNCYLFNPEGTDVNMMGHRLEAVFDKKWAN

The target of experiment [11] is T5, CaBdf1 BD2. The experiment in a line: HTRF assay, inhibition of BD binding to H4ac4 peptide. Conditions: HTRF, H4ac4 peptide; BETi, maximal concentration 10 μM; read-out: IC50 values. Also on record: made in house; host or cells: E. coli BL21(DE3).
Target sequence in this assay (Q5A4W8 361-501): as the sequence (Q5A4W8 361-501) above
Experiment [12] relates to 32 representative human (BET and non-BET) BDs. Also noted: method as in earlier work. Conditions: cited from earlier work.

“And” between values parts separate entries of the source, which are not always exact repeats. Equal entries are not always repeated. “Also recorded” adds a separate entry of the source. Where two headings read alike, the source gives them in different places.

T3 sequence (Q5A4W8 193-327): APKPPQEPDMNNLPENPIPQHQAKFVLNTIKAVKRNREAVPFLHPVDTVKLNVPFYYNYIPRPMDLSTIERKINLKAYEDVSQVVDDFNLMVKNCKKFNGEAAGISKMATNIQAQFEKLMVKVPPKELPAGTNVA
T1 sequence (Q5A4W8 193-327 Y248F): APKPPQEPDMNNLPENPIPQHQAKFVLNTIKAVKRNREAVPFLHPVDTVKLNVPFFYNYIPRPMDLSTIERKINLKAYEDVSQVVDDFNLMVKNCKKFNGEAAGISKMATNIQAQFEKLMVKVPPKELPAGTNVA
T2 sequence (Q5A4W8 361-501 Y425F): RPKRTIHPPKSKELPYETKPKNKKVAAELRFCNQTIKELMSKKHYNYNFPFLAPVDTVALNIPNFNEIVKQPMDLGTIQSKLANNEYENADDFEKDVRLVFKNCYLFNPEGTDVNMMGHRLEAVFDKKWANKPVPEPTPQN

The term EC50 denotes the concentration at which the effect is half-maximal. In general, Kd refers to the constant that tells how readily two partners part at equilibrium. A higher Kd goes with weaker binding. A word on the IC50: it is the concentration at which inhibition is half-maximal. As for `CN1C(=O)c2ccccc2Sc2cc(NC(=O)C3CCCO3)ccc21` (centres unmarked) [Compound 3], the “Peptide array signal, raw data, Left” value stood at 0.004458 in experiment [1] (left replicate array), 0.001942 in experiment [2] (left replicate array), 0.005491 in experiment [6] (left replicate array) and 0.001069 in experiment [8] (left replicate array). In addition, the “Peptide array signal, raw data, Right” value in experiment [1] (right replicate array) was 0.001715; in experiment [2] (right replicate array) it was 0.002427. Moreover, in experiment [3] (Candida albicans, read-out: cellular EC50), the EC50 is 35 ± 7 µM. In addition, the “growth of strains expressing WT Bdf1 or Bdf1 inactivated in BD1 (functional BD2) (in words)” value in experiment [3] (liquid culture, Met/Cys or Dox) is given as “little effect; also recorded: insensitive”. In addition, the “growth of strains inactivated in BD2 (bdf1-bd2Δ, bdf1-Y425F) (in words)” value in experiment [3] (liquid culture, Met/Cys or Dox) is “significantly inhibited; also recorded: compromises the in vitro growth; also recorded: sensitive”. Moreover, the dissociation constant Kd turned out to be 4.8 ± 0.2 µM in experiment [4] and 13.4 ± 1.7 µM in [9]. Besides, the “N (stoichiometry)” value came out at 1.05 ± 0.03 in experiment [4] (ITC, 25 °C) and 0.92 ± 0.03 in experiment [9] (ITC, 25 °C). Besides, the TΔS in experiment [4] (ITC, 25 °C) was found to be 0.44 kcal/mol; in [9] (ITC, 25 °C), 3.107 kcal/mol. Also, the ΔG in [4] (ITC, 25 °C) was -7.251 kcal/mol; in experiment [9] (ITC, 25 °C) it was -6.644 kcal/mol. For the same molecule, the ΔH in experiment [4] (ITC, 25 °C) is -6.81 ± 0.12 kcal/mol; in [9] (ITC, 25 °C) it was -3.54 ± 0.454 kcal/mol. In addition, the IC50 was determined as 12.5 ± 0.8 µM in experiment [5] and 1.7 ± 0.6 µM in [7] (HTRF, read-out: IC50). The “Peptide array signal, Normalized (0 to 100%), Average” value was found to be 0.296% in experiment [6] and 0.0363% in experiment [8]. Besides, the results for the “Peptide array signal, raw data, Rigt” value in experiment [6] (right replicate array) and in [8] (right replicate array) were 0.01167 and 0.003207, respectively. Besides, the “inhibition of CaBdf1 BD1 (in words)” value in [7] (HTRF) is “low-micromolar affinity”. Further, in [7] (HTRF IC50 ratio), the “IC50 for Brd4 BD1 relative to IC50 for CaBdf1 BD1” value came to 7 fold.

Turning to `Cc1sc2c(c1C)C(c1ccc(Cl)cc1)=N[C@@H](CC(=O)OC(C)(C)C)c1nnc(C)n1-2` [JQ1, reference compound], the “binding to CaBdf1 BD1 (in words)” value in experiment [4] (ITC) is listed as “no binding was detected”. In addition, the “binding to CaBdf1 BD2 (in words)” value in experiment [10] was “no binding was detected”. In addition, the IC50 in [11] was about 10 µM. In addition, in experiment [7] (IC50 values, HTRF, BETi, maximal concentration 10 μM), the concentration for half-maximal inhibition (IC50) was over 10 µM. For the same molecule, in experiment [9] (ITC, 25 °C), the “N (stoichiometry)” value is given as 1.00 ± 0.03, the TΔS is -2.935 kcal/mol and the ΔH is -12.8 ± 0.12 kcal/mol.

As to `Cc1sc2c(c1C)C(c1ccc(Cl)cc1)=N[C@@H](CC(=O)NCCCCNC(=O)COc1cccc3c1C(=O)N(C1CCC(=O)NC1=O)C3=O)c1nnc(C)n1-2` (some centres unmarked) [dBET1], the “BROMOscan signal, percent of control” value in experiment [12] (CREBBP, EP300, FALZ and SMARCA4) is 25-35%; in experiment [12] (six BET BDs), 0%; in [12] (the other two BET BDs), 0.25% and 1.6%; in experiment [12] (the remaining BDs), over 35%.

The record behind these values is paper PMC5454392, “Selective BET bromodomain inhibition as an antifungal therapeutic strategy” (Nature Communications, 2017).
